{"source": "patent US20120244106A1", "about": "(SANOFI-AVENTIS U.S. LLC, priority 2009, published 2012)", "type_in_all_cases": "in vivo, humans", "key": {"[1]": {"system": "relapsing-remitting multiple sclerosis patients", "assay": "Brain MRI Gd-enhancing T1-lesions (number and volume), 24-week placebo-controlled add-on study, ITT population", "conditions": "24 weeks", "procedure": "(§1) A placebo-controlled, double-blinded, randomized study was conducted in relapsing-remitting multiple sclerosis patients who were concurrently on a stable dose of glatiramer acetate. The dose of glatiramer acetate was 20 mg subcutaneously daily.\n(§2) Around 40 patients were treated in each treatment group (placebo: 41, 7 mg: 42, and 14 mg: 40). […] The mean age of the study population was 41.4 years. […] The base line Expanded Disability Status Scale (EDSS) score was similar between treatment groups (around 2.5). A few more patients had Magnetic Resonance Image (MRI) disease activity (at least one T1-Gd lesion) at baseline in 7 mg group (28.6%) than in placebo (14.6%) and 14 mg (12.8%) groups.\n(§3) Safety was evaluated with reported Treatment Emergent Adverse Events (TEAE), physical examination (every 8-weeks), laboratory data (e.g. Liver Function Test, every 2 weeks), vital signs (every 8-weeks), ECG and abdominal ultrasound (at baseline and at 24-weeks). Brain MRI activity, including T1-gadolinium (T1-Gd) lesions with central reading was recorded every 8-weeks, EDSS scores were recorded at baseline and at 24-weeks, Fatigue impact scale was assessed every 8-weeks, and relapses were assessed at every clinical visit."}, "[2]": {"system": "relapsing-remitting multiple sclerosis patients", "assay": "Confirmed MS relapses / annualized relapse rate, 24-week study, ITT population", "conditions": "24 weeks", "procedure": "as §1, §2, §3\nTwenty-nine patients experienced a total of 30 confirmed relapses. Two relapses occurred after treatment discontinuation (1 day in one placebo patient, 41 days in one 7 mg patient). Therefore, 28 confirmed relapses occurring in 27 patients were included in the analysis (Table 3)."}, "[3]": {"system": "relapsing-remitting multiple sclerosis patients", "assay": "Safety and tolerability (TEAE, laboratory data), 24-week study", "conditions": "24 weeks", "procedure": "as §1\nAround 40 patients were treated in each treatment group (placebo: 41, 7 mg: 42, and 14 mg: 40).\nas §3"}, "[4]": {"system": "relapsing-remitting multiple sclerosis patients", "assay": "Brain MRI Gd-enhancing T1-lesions (number and volume), entire 48-week double-blind treatment period, ITT population", "procedure": "(§4) Design/Methods: 96 of the 123 patients that were randomized to study treatment ([…]) for the first 6-months in Example 1 completed this 6-month period and accepted to continue medication for an additional 6-month period (placebo: 37, 7 mg: 30, 14 mg: 29). Of the 96 treated patients, 5 patients prematurely withdrew from the study treatment (placebo: 3, 7 mg: 0, and 14 mg: 2). Safety was evaluated from TEAE, physical exam (every 6 weeks), laboratory data (every 6 weeks), vital signs (every 6 weeks), ECG (at the close-out visit), pancreatic ultrasound (at the close-out visit) and brain MRI (at the close-out visit). Relapses were recorded and EDSS was performed every 6-weeks. Annualized relapse rates (ARR) were analyzed by a Poisson model with the total number of confirmed relapses onset between randomization date and last dose date as the response variable, treatment and region as covariates, and log-transformed standardized study duration as an offset variable. The following results report the entire 48-week double-blind treatment period.\nOne patient (14 mg group) had one day participation in the study and had no valid baseline MRI data. Two other patients, one in 7 mg and one in 14 mg, prematurely discontinued the study and no post baseline MRI was collected."}, "[5]": {"system": "relapsing-remitting multiple sclerosis patients", "assay": "Confirmed MS relapses / annualized relapse rate, 48-week treatment period, ITT population", "conditions": "48 weeks", "procedure": "Safety was evaluated from TEAE, physical exam (every 6 weeks), laboratory data (every 6 weeks), vital signs (every 6 weeks), ECG (at the close-out visit), pancreatic ultrasound (at the close-out visit) and brain MRI (at the close-out visit). Relapses were recorded and EDSS was performed every 6-weeks."}, "[6]": {"system": "relapsing-remitting multiple sclerosis patients", "assay": "Safety and tolerability (TEAE, laboratory data), 48-week treatment period", "conditions": "48 weeks", "procedure": "as §4"}, "[7]": {"conditions": "7 mg teriflunomide + GA 20 mg sc daily"}, "[8]": {"conditions": "14 mg teriflunomide + GA 20 mg sc daily"}, "[9]": {"conditions": "7 mg or 14 mg teriflunomide + GA"}, "[10]": {"conditions": "the two teriflunomide groups (7 mg, 14 mg) + GA vs placebo + GA"}, "[11]": {"conditions": "7 mg teriflunomide + GA 20 mg sc daily, 48 weeks"}, "[12]": {"conditions": "14 mg teriflunomide + GA 20 mg sc daily (group not given)"}}, "data": [{"smiles": "C/C(O)=C(\\C#N)C(=O)Nc1ccc(C(F)(F)F)cc1", "note": "[teriflunomide, (Z)-2-cyano-3-hydroxy-but-2-enoic acid-(4′-trifluoromethylphenyl)-amide]", "values": [{"measurement": "Patients with >=1 Gd-enhancing T1-lesions post-baseline: No (% of patients)", "setting": "[1]; [7]", "result": 61.0, "unit": "%"}, {"measurement": "Unadjusted Gd-enhancing T1-lesions per scan", "setting": "[1]; [7]", "result": 0.321}, {"measurement": "Unadjusted Gd-enhancing T1-lesions per scan", "setting": "[1]; [8]", "result": 0.262}, {"measurement": "Disease control as evaluated by T1-Gd MRI activity", "setting": "[1]; teriflunomide added to stable-dosed GA", "result": "improved disease control beyond glatiramer acetate alone"}, {"measurement": "Adjusted annualized relapse rate, estimate (Poisson model)", "setting": "[2]; [7]", "result": 0.311}, {"measurement": "Total number of relapses", "setting": "[2]; [7]", "result": 6}, {"measurement": "Unadjusted annualized relapses rate", "setting": "[2]; [7]", "result": 0.337, "unit": "per patient year"}, {"measurement": "Adjusted annualized relapse rate, estimate (Poisson model)", "setting": "[2]; [8]", "result": 0.647}, {"measurement": "Total number of relapses", "setting": "[2]; [8]", "result": 12}, {"measurement": "Unadjusted annualized relapses rate", "setting": "[2]; [8]", "result": 0.710, "unit": "per patient year"}, {"measurement": "Concurrent increase in ALT>3ULN and in total bilirubin>2ULN", "setting": "[3]; [9]", "result": "No case"}, {"measurement": "Deaths", "setting": "[3]; [9]", "result": "No patients died"}, {"measurement": "Number of patients with TEAE leading to treatment discontinuation", "setting": "[3]; [7]", "result": 3}, {"measurement": "Patients with ALT greater than 3ULN", "setting": "[3]; [7]", "result": 0}, {"measurement": "Patients with TEAE leading to treatment discontinuation (%)", "setting": "[3]; [7]", "result": 7.1, "unit": "%"}, {"measurement": "Proportion of patients with TEAE potentially related to immunosuppression", "setting": "[3]; [7]", "result": 43, "unit": "%"}, {"measurement": "Proportion of patients with a TEAE related to hepatic disorder", "setting": "[3]; [7]", "result": 9.5, "unit": "%"}, {"measurement": "TEAE incidence rate", "setting": "[3]; [7]", "result": 83.3, "unit": "%"}, {"measurement": "Number of patients with TEAE leading to treatment discontinuation", "setting": "[3]; [8]", "result": 4}, {"measurement": "Patients with ALT greater than 3ULN", "setting": "[3]; [8]", "result": 1}, {"measurement": "Patients with TEAE leading to treatment discontinuation (%)", "setting": "[3]; [8]", "result": 10, "unit": "%"}, {"measurement": "Proportion of patients with TEAE potentially related to immunosuppression", "setting": "[3]; [8]", "result": 38, "unit": "%"}, {"measurement": "Proportion of patients with a TEAE related to hepatic disorder", "setting": "[3]; [8]", "result": 12.2, "unit": "%"}, {"measurement": "TEAE incidence rate", "setting": "[3]; [8]", "result": 87.5, "unit": "%"}, {"measurement": "Tolerability and safety", "setting": "[3]; each teriflunomide dose (7 mg, 14 mg) combined with GA", "result": "acceptable"}, {"measurement": "Proportion of patients with occurrence of decreased WBC count and neutrophils (PCSA)", "setting": "[3]; [10]", "result": "slightly higher"}, {"measurement": "Patients with >=1 Gd-enhancing T1-lesions post-baseline: No (% of patients)", "setting": "[4]; [11]", "result": 56.1, "unit": "%"}, {"measurement": "Unadjusted Gd-enhancing T1-lesions per scan", "setting": "[4]; [11]", "result": 0.317}, {"measurement": "Unadjusted Gd-enhancing T1-lesions per scan", "setting": "[4]; 14 mg teriflunomide + GA 20 mg sc daily, 48 weeks", "result": 0.233}, {"measurement": "Controlling disease activity as measured by T1-Gd lesions", "setting": "[4]; teriflunomide added to GA, one-year study", "result": "trend to benefit"}, {"measurement": "Adjusted annualized relapse rate, estimate (Poisson model)", "setting": "[5]; [7]", "result": 0.262}, {"measurement": "Number of patients with >=1 relapses: Yes (number of patients)", "setting": "[5]; [7]", "result": 8}, {"measurement": "Unadjusted annualized relapses rate", "setting": "[5]; [7]", "result": 0.281, "unit": "per patient year"}, {"measurement": "Adjusted annualized relapse rate, estimate (Poisson model)", "setting": "[5]; [8]", "result": 0.497}, {"measurement": "Number of patients with >=1 relapses: Yes (number of patients)", "setting": "[5]; [8]", "result": 15}, {"measurement": "Unadjusted annualized relapses rate", "setting": "[5]; [8]", "result": 0.546, "unit": "per patient year"}, {"measurement": "Number of patients experiencing a serious TEAE", "setting": "[6]; [7]", "result": 5}, {"measurement": "Number of patients with TEAE leading to treatment discontinuation", "setting": "[6]; [7]", "result": 3}, {"measurement": "Patients experiencing a serious TEAE (%)", "setting": "[6]; [7]", "result": 11.9, "unit": "%"}, {"measurement": "Patients who experienced a TEAE related to hypertension (number)", "setting": "[6]; [7]", "result": 2}, {"measurement": "Patients with ALT greater than 3×ULN", "setting": "[6]; [7]", "result": 0}, {"measurement": "Patients with TEAE leading to treatment discontinuation (%)", "setting": "[6]; [7]", "result": 7.1, "unit": "%"}, {"measurement": "Proportion of patients experiencing a TEAE related to hypersensitivity", "setting": "[6]; [7]", "result": 14.3, "unit": "%"}, {"measurement": "Proportion of patients with a TEAE potentially related to immunosuppression (all infections and hematological disorders)", "setting": "[6]; [7]", "result": 52.4, "unit": "%"}, {"measurement": "Proportion of patients with a TEAE related to hepatic disorder", "setting": "[6]; [7]", "result": 9.5, "unit": "%"}, {"measurement": "TEAE incidence rate", "setting": "[6]; [7]", "result": 95.2, "unit": "%"}, {"measurement": "Number of patients experiencing a serious TEAE", "setting": "[6]; [12]", "result": 2}, {"measurement": "Patients experiencing a serious TEAE (%)", "setting": "[6]; [12]", "result": 4.9, "unit": "%"}, {"measurement": "Number of patients with TEAE leading to treatment discontinuation", "setting": "[6]; [8]", "result": 5}, {"measurement": "Patients who experienced a TEAE related to hypertension (number)", "setting": "[6]; [8]", "result": 2}, {"measurement": "Patients with ALT greater than 3×ULN", "setting": "[6]; [8]", "result": 1}, {"measurement": "Patients with TEAE leading to treatment discontinuation (%)", "setting": "[6]; [8]", "result": 12.2, "unit": "%"}, {"measurement": "Proportion of patients experiencing a TEAE related to hypersensitivity", "setting": "[6]; [8]", "result": 24.4, "unit": "%"}, {"measurement": "Proportion of patients with a TEAE potentially related to immunosuppression (all infections and hematological disorders)", "setting": "[6]; [8]", "result": 51.2, "unit": "%"}, {"measurement": "Proportion of patients with a TEAE related to hepatic disorder", "setting": "[6]; [8]", "result": 12.2, "unit": "%"}, {"measurement": "TEAE incidence rate", "setting": "[6]; [8]", "result": 92.7, "unit": "%"}, {"measurement": "Tolerability and safety", "setting": "[6]; each dose of teriflunomide (7 mg, 14 mg) combined with GA", "result": "acceptable and manageable"}, {"measurement": "Proportions of patients with occurrence of decreased WBC and neutrophil counts (PCSA)", "setting": "[6]; [10]", "result": "slightly higher"}]}]}
